Our source for the Ki values is patent US7446199B2, “Compositions useful as inhibitors of protein kinases” (Vertex Pharmaceuticals Incorporated, priority 2003, dated 2008).

The target in one assay is T1, JAK3 (Homo sapiens, UniProt P52333).
T1 sequence (P52333 1-1124): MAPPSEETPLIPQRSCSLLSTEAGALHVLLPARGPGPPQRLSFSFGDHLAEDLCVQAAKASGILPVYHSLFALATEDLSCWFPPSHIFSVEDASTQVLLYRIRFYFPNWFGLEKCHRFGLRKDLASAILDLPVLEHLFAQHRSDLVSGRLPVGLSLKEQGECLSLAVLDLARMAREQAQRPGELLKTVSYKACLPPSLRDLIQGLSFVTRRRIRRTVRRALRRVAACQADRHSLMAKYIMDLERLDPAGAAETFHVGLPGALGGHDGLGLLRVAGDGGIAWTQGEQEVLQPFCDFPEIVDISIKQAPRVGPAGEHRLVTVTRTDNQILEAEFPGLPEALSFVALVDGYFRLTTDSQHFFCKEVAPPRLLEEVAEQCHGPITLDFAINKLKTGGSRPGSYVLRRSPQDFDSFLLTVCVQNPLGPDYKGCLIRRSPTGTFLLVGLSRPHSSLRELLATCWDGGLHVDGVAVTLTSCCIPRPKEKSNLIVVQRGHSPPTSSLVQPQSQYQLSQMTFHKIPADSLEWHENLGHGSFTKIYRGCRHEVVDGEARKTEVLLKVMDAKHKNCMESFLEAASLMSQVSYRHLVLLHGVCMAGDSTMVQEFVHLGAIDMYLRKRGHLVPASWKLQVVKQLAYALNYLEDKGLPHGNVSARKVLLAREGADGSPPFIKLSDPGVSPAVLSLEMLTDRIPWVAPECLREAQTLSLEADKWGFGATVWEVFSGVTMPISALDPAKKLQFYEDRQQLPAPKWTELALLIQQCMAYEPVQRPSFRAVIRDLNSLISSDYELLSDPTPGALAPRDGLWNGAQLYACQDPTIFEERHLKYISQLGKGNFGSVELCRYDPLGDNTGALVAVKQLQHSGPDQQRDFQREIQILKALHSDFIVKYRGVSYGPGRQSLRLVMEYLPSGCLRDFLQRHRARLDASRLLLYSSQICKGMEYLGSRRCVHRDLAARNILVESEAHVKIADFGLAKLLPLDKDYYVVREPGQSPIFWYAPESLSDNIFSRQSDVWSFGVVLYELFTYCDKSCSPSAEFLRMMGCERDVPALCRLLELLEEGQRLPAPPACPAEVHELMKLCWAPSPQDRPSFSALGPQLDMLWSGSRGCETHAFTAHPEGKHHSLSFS
Description: JAK3 inhibition assay (ELISA, Poly (Glu, Ala, Tyr) coated plates). It counts as biochemical. The following applies: 2 mM ATP, 60 minutes at 30° C. In a few lines: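 ELISA on Poly(Glu,Ala,Tyr) 6:3:1-coated plates with 2 mM ATP and 5 mM MgCl2. JAK enzyme started the reaction, run 60 min at 30° C. Phosphotyrosine was detected with HRP-conjugated 4G10 antibody and TMB, read at 450 nm, and IC50 was derived from optical densities.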
(In general: ELISA stands for enzyme-linked immunosorbent assay.)

The next assay has as its target KDR (Homo sapiens, UniProt P35968). Description: KDR enzyme assay, coupled enzyme assay. In kind it is biochemical. As to conditions: 300 μM ATP, 10 μM poly E4Y, 30 nM KDR, 37° C. As to the method:
Compounds were screened for their ability to inhibit KDR using a standard coupled enzyme assay (Fox et al., Protein Sci., (1998) 7, 2249). Assays were carried out in a mixture of 200 mM HEPES 7.5, 10 mM MgCl2, 25 mM NaCl, 1 mM DTT and 1.5% DMSO. Final substrate concentrations in the assay were 300 μM ATP (Sigma Chemicals) and 10 μM poly E4Y (Sigma). Assays were carried out at 37° C. and 30 nM KDR. Final concentrations of the components of the coupled enzyme system were 2.5 mM phosphoenolpyruvate, 200 μM NADH, 30 μg/ML pyruvate kinase and 10 μg/ml lactate dehydrogenase.
An assay stock buffer solution was prepared containing all of the reagents listed above, with the exception of ATP and the test compound of interest. 177 μl of the stock solution was placed in a 96 well plate followed by addition of 3 μl of 2 mM DMSO stock containing the test compound (final compound concentration 30 μM). The plate was preincubated for about 10 minutes at 37° C. and the reaction initiated by addition of 20 μl of ATP (final concentration 300 μM). Rates of reaction were obtained using a Molecular Devices plate reader (Sunnyvale, Calif.) over a 5 minute read time at 37° C.

A value given as a limit tells only on which side of the number the result lay.

KDR, sequence (P35968 20-1356): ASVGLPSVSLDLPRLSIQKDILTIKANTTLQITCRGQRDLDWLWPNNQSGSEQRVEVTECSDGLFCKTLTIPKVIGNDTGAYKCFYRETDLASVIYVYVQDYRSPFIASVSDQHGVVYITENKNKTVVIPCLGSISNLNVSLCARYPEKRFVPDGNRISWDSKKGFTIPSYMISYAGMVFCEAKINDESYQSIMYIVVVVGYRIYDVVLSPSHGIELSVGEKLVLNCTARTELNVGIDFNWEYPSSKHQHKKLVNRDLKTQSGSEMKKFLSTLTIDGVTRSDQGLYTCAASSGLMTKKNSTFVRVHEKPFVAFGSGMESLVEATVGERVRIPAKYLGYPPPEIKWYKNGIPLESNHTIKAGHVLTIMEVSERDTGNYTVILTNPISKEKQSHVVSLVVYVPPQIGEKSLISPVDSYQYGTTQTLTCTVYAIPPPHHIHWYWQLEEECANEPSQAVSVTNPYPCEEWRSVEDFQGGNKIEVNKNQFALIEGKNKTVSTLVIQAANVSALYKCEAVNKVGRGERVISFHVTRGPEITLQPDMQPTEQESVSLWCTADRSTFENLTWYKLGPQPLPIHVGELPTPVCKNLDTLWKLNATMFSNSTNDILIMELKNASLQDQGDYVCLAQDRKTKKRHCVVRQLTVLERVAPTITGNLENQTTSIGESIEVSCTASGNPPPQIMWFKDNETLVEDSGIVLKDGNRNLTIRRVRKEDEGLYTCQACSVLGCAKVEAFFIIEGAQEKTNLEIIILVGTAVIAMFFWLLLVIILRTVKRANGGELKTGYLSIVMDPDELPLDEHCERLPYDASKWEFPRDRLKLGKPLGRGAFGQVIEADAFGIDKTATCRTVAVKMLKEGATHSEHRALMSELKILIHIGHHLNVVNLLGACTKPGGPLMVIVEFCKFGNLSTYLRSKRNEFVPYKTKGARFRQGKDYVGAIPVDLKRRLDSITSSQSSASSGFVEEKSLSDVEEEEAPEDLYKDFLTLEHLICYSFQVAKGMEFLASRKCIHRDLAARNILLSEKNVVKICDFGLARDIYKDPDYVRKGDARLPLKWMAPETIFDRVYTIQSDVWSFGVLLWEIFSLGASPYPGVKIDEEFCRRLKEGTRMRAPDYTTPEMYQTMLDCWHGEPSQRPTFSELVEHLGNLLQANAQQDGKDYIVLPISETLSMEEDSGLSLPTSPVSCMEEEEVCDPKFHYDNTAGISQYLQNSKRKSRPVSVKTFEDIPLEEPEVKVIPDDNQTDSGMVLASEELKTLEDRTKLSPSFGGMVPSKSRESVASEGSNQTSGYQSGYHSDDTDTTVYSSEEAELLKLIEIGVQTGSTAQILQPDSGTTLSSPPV

For the compound `c1cnc2[nH]cc(-c3oncc3C3CCCCC3)c2c1` [Compound 47, 3-(4-Cyclohexyl-isoxazol-5-yl)-1H-pyrrolo[2,3-b]pyridine], the Ki at JAK3 was in the range of 0.2 to 1 µM; at KDR, 1 to 12.5 µM.
For `CCN1CCC(c2cnc3[nH]cc(-c4oncc4-c4cccc(F)c4F)c3c2)CC1` [Compound 72, 3-[4-(2,3-Difluoro-phenyl)-isoxazol-5-yl]-5-(1-ethyl-piperidin-4-yl)-1H-pyrrolo[2,3-b]pyridine], the Ki on JAK3 was 1 to 12.5 µM.
On to `CS(=O)(=O)n1ccc2cc(-c3cnc4[nH]cc(-c5oncc5-c5cccc(F)c5F)c4c3)cnc21` [Compound 97, 3′-[4-(2,3-Difluoro-phenyl)-isoxazol-5-yl]-1-methanesulfonyl-1H, 1′H-[5,5′]bi[pyrrolo[2,3-b]pyridinyl]], for which the Ki at JAK3 is 0.2 to 1 µM; on KDR, less than 0.2 µM.
Regarding `CN(C)Cc1ccnc(-c2cnc3[nH]cc(-c4oncc4-c4cccc(F)c4F)c3c2)c1` [Compound 82, (2-{3-[4-(2,3-Difluoro-phenyl)-isoxazol-5-yl]-1H-pyrrolo[2,3-b]pyridin-5-yl}-pyridin-4-ylmethyl)-dimethyl-amine], the Ki on JAK3 and at KDR was less than 0.2 µM throughout.
Regarding `Fc1cccc(-n2cnnc2-c2c[nH]c3ncc(-c4ccncc4)cc23)c1F` [Compound 114, 3-[4-(2,3-Difluoro-phenyl)-4H-[1,2,4]triazol-3-yl]-5-pyridin-4-yl-1H-pyrrolo[2,3-b]pyridine], the inhibition constant (Ki) fell in the range of 1 to 12.5 µM on JAK3 and 0.2 to 1 µM on KDR.
Turning to `COc1cnc2[nH]cc(-c3oncc3-c3cccc(Cl)c3Cl)c2c1` [Compound 49, 3-[4-(2,3-Dichloro-phenyl)-isoxazol-5-yl]-5-methoxy-1H-pyrrolo[2,3-b]pyridine], the inhibitory constant (Ki) on JAK3 and at KDR was less than 0.2 µM throughout.
For the compound `Fc1cccc(-n2cnnc2-c2c[nH]c3ncc(-c4ccc(N5CCC[C@H]5CN5CCCC5)nc4)cc23)c1F` [Compound 115, 3-[4-(2,3-Difluoro-phenyl)-4H-[1,2,4]triazol-3-yl]-5-[6-(2-pyrrolidin-1-ylmethyl-pyrrolidin-1-yl)-pyridin-3-yl]-1H-pyrrolo[2,3-b]pyridine], the Ki on JAK3 and at KDR was 1 to 12.5 µM in each case.
For `CN(C)c1ccc(-c2cnc3[nH]cc(-c4nncn4-c4cccc(F)c4F)c3c2)cc1` [Compound 106, (4-{3-[4-(2,3-Difluoro-phenyl)-4H-[1,2,4]triazol-3-yl]-1H-pyrrolo[2,3-b]pyridin-5-yl}-phenyl)-dimethyl-amine], the Ki on JAK3 and at KDR was 0.2 to 1 µM throughout.
`CN(C)c1ccnc2[nH]cc(-c3oncc3-c3cccc(F)c3F)c12` [Compound 56, {3-[4-(2,3-Difluoro-phenyl)-isoxazol-5-yl]-1H-pyrrolo[2,3-b]pyridin-4-yl}-dimethyl-amine]: the Ki on JAK3 and at KDR was 0.2 to 1 µM throughout.
With `Fc1cccc(-n2cnnc2-c2c[nH]c3ncc(-c4ccc(N5CCCC5)nc4)cc23)c1F` [Compound 118, 3-[4-(2,3-Difluoro-phenyl)-4H-[1,2,4]triazol-3-yl]-5-(6-pyrrolidin-1-yl-pyridin-3-yl)-1H-pyrrolo[2,3-b]pyridine], the inhibitory constant (Ki) on JAK3 and at KDR was 0.2 to 1 µM each time.
For the compound `Fc1cccc(-c2cnoc2-c2c[nH]c3ncc(-c4ccc(N5CCNCC5)cc4)cc23)c1F` [Compound 68, 3-[4-(2,3-Difluoro-phenyl)-isoxazol-5-yl]-5-(4-piperazin-1-yl-phenyl)-1H-pyrrolo[2,3-b]pyridine], the Ki at JAK3 and on KDR was less than 0.2 µM throughout.
Consider `CN(C)c1ccc(-c2cnc3[nH]cc(-c4oncc4-c4cccc(F)c4F)c3c2)cc1` [Compound 88, (4-{3-[4-(2,3-Difluoro-phenyl)-isoxazol-5-yl]-1H-pyrrolo[2,3-b]pyridin-5-yl}-phenyl)-dimethyl-amine], for which the Ki at JAK3 and on KDR was less than 0.2 µM each time.
As to `Fc1cccc(-c2cnoc2-c2c[nH]c3ncc(-c4cnc5[nH]ccc5c4)cc23)c1F` [Compound 77, 3-[4-(2,3-Difluoro-phenyl)-isoxazol-5-yl]-1H,1′H-[5,5′]bi[pyrrolo[2,3-b]pyridinyl]], the Ki at JAK3 and on KDR was less than 0.2 µM in each case.
Take `CN1CCN(c2ccc(-c3cnc4[nH]cc(-c5oncc5-c5cccc(F)c5F)c4c3)cc2)CC1` [Compound 70, 3-[4-(2,3-Difluoro-phenyl)-isoxazol-5-yl]-5-[4-(4-methyl-piperazin-1-yl)-phenyl]-1H-pyrrolo[2,3-b]pyridine methanesulfonate]: the Ki at JAK3 and on KDR was less than 0.2 µM throughout.
Turning to `CN(C)C(=O)c1ccc(-c2cnc3[nH]cc(-c4oncc4-c4cccc(F)c4F)c3c2)nc1` [Compound 79, 6-{3-[4-(2,3-Difluoro-phenyl)-isoxazol-5-yl]-1H-pyrrolo [2,3-b]pyridin-5-yl}-N,N-dimethyl-nicotinamide], the Ki at JAK3 and on KDR was less than 0.2 µM each time.
Regarding `Fc1cccc(-c2cnoc2-c2c[nH]c3ncc(-c4cncnc4)cc23)c1F` [Compound 85, 3-[4-(2,3-Difluoro-phenyl)-isoxazol-5-yl]-5-pyrimidin-5-yl-1H-pyrrolo[2,3-b]pyridine], the Ki on JAK3 lay in the range of 0.2 to 1 µM; on KDR, 1 to 12.5 µM.
Consider `Clc1cccc(-c2cnoc2-c2c[nH]c3ncc(-c4cccnc4)cc23)c1Cl` [Compound 99, 3-[4-(2,3-Dichloro-phenyl)-isoxazol-5-yl]-5-pyridin-3-yl-1H-pyrrolo[2,3-b]pyridine], for which the Ki on JAK3 and at KDR was less than 0.2 µM throughout.
On to `Fc1cccc(-c2cnoc2-c2c[nH]c3ncc(-c4ccncc4)cc23)c1F` [Compound 57, 3-[4-(2,3-Difluoro-phenyl)-isoxazol-5-yl]-5-pyridin-4-yl-1H-pyrrolo[2,3-b]pyridine], for which the values for the Ki on JAK3 and at KDR were less than 0.2 µM and 0.2 to 1 µM, respectively.
The corresponding values for `Fc1cccc(-c2cnoc2-c2c[nH]c3ncccc23)c1F` [Compound 1, 3-[4-(2,3-Difluoro-phenyl)-isoxazol-5-yl]-1H-pyrrolo[2,3-b]pyridine] are 0.2 to 1 µM and 1 to 12.5 µM.
The compound `Nc1[nH]c2ncccc2c1-c1oncc1-c1cccc(F)c1F` [Compound 152] yielded a Ki on JAK3 of 1 to 12.5 µM.
Compound `O=c1[nH]ccc2c(-c3oncc3-c3cccc(F)c3F)c[nH]c12` [Compound 145, 3-[4-(2,3-Difluoro-phenyl)-isoxazol-5-yl]-1,6-dihydro-pyrrolo[2,3-c]pyridin-7-one] had a Ki at JAK3 of 0.2 to 1 µM.
On the same count and under the same terms, as for `CN1CCC(c2cnc3[nH]cc(-c4oncc4-c4cccc(F)c4F)c3c2)CC1` [Compound 60, 3-[4-(2,3-Difluoro-phenyl)-isoxazol-5-yl]-5-(1-methyl-piperidin-4-yl)-1H-pyrrolo[2,3-b]pyridine], the figure is 1 to 12.5 µM; as for `Cn1ccc2c(-c3oncc3-c3cccc(F)c3F)c[nH]c2c1=O` [Compound 144, 3-[4-(2,3-Difluoro-phenyl)-isoxazol-5-yl]-6-methyl-1,6-dihydro-pyrrolo[2,3-c]pyridin-7-one], 1 to 12.5 µM.
As to `CN1CCN(C(=O)[C@H]2C[C@H]2c2cnc3[nH]cc(-c4oncc4-c4cccc(F)c4F)c3c2)CC1` (relative stereo) [Compound 143, cis-(2-{3-[4-(2,3-Difluoro-phenyl)-isoxazol-5-yl]-1H-pyrrolo[2,3-b]pyridin-5-yl}-cyclopropyl)-(4-methyl-piperazin-1-yl)-methanone], on JAK3, the Ki was in the range of 1 to 12.5 µM.

In general, Ki refers to a dissociation constant, usually derived from enzyme kinetics or from competition with a known ligand. Read a low Ki as a stronger hold on the target.
